Source: ChEMBL document CHEMBL1806453, “Conjugate of neamine and 2-deoxystreptamine mimic connected by an amide bond” (Bioorg Med Chem Lett, 2011)

How the values were obtained:
Format in all cases: nucleic-acid assay
[1] = target: Nucleic Acid; experiment: Binding affinity to 2-AP labeled mutant RNA5 by fluorescence binding assay
[2] = target: Nucleic Acid; experiment: Binding affinity to 2-AP labeled mutant RNA4 by fluorescence binding assay
[3] = target: Nucleic Acid; experiment: Binding affinity to 2-AP labeled mutant RNA3 by fluorescence binding assay
[4] = target: Nucleic Acid; experiment: Binding affinity to 2-AP labeled mutant RNA2 by fluorescence binding assay
[5] = target: Nucleic Acid; experiment: Binding affinity to 2-AP labeled RNA1 by fluorescence binding assay
[6] = target: Nucleic Acid; experiment: Binding affinity to 2-AP labeled mutant RNA6 by fluorescence binding assay
[7] = target: Nucleic Acid; experiment: Binding affinity to 2-AP labeled mutant RNA7 by fluorescence binding assay
[8] = target: Nucleic Acid; experiment: Binding affinity to 2-AP labeled mutant RNA8 by fluorescence binding assay

| Kd [1] [nM] | Kd [2] [nM] | Kd [3] [nM] | Kd [4] [nM] | Kd [5] [nM] | Kd [6] [nM] | Kd [7] [nM] | Kd [8] [nM] | SMILES |
| --- | --- | --- | --- | --- | --- | --- | --- | --- |
| 500 | 1700 | 2200 | 1500 | 2200 | 1400 | 2900 | 1400 | CO[C@@H]1C[C@H](NC(=O)[C@@H]2C[C@H](O[C@H]3O[C@H](CN)[C@@H](O)[C@H](O)[C@H]3N)[C@@H](N)C[C@H]2N)[C@@H](N)C[C@H]1N |
| 1100 | – | 1100 | – | 1500 | – | 1100 | – | NC[C@@H]1O[C@H](O[C@H]2[C@@H](O)[C@H](O[C@@H]3[C@@H](O)[C@H](N)C[C@H](N)[C@H]3O[C@H]3O[C@H](CN)[C@@H](O)[C@H](O)[C@H]3N)O[C@@H]2CO)[C@H](N)[C@@H](O)[C@@H]1O [FRAMYCETIN] |
